Measurements: US20210254056A1, “IDENTIFICATION AND TARGETED MODULATION OF GENE SIGNALING NETWORKS” (CAMP4 THERAPEUTICS CORPORATION, priority 2017, published 2021)

Tested on: hepatocytes
Experiment: RNA-seq of hepatocytes treated with Phase III failure compounds
Settings: for significant modulation of expression of any of the genes analyzed: p≤0.05
Experimental: RNA-seq was performed to determine the effects of the compounds on hepatocytes.
Significance was determined by the criteria of FPKM≥0.5, a log 2(fold-change)≥1, and a […].

NC(=O)c1ccc(I)c([N+](=O)[O-])c1 [BSI-201]
RNA-seq results, CYP2B6 expression: 0.07
RNA-seq results, CYP2C19 expression: 0.30
RNA-seq results, CYP2D6 expression: −0.15
RNA-seq results, CYP3A4 expression: −0.46
RNA-seq results, CYP7B1 expression: 0.03
RNA-seq results, CYP39A1 expression: −0.20
RNA-seq results: CYP2B6 expression: 0.48
RNA-seq results: CYP2C19 expression: 0.24
RNA-seq results: CYP2D6 expression: 0.11
RNA-seq results: CYP3A4 expression: 3.12
RNA-seq results: CYP7B1 expression: 0.05
RNA-seq results: CYP39A1 expression: 0.43
significant modulation of expression of disease genes (RNA-seq, q≤0.05, hepatocytes, genes in the value or listed in the block): significantly (q≤0.05) modulate expression of RMRP
RNA-seq results: A1BG expression (gene A1BG, hepatocytes): −0.21
RNA-seq results: AGTR1 expression (gene AGTR1, hepatocytes): −0.22
RNA-seq results: AGXT expression (gene AGXT, hepatocytes): −0.06
RNA-seq results: AHI1 expression (gene AHI1, hepatocytes): 0.33
RNA-seq results: AMPD3 expression (gene AMPD3, hepatocytes): 0.19
RNA-seq results: AMT expression (gene AMT, hepatocytes): −0.04
RNA-seq results: ANGPTL3 expression (gene ANGPTL3, hepatocytes): −0.14
RNA-seq results: ANKS4B expression (gene ANKS4B, hepatocytes): −0.24
RNA-seq results: ANKS6 expression (gene ANKS6, hepatocytes): 0.04
RNA-seq results: ANPEP expression (gene ANPEP, hepatocytes): −0.09
RNA-seq results: AOC2 expression (gene AOC2, hepatocytes): 0.36
RNA-seq results: APOA2 expression (gene APOA2, hepatocytes): −0.52
RNA-seq results: APOA5 expression (gene APOA5, hepatocytes): −0.17
RNA-seq results: APOB expression (gene APOB, hepatocytes): 0.03
RNA-seq results: COG5 expression (gene COG5, hepatocytes): −0.06
RNA-seq results: COG6 expression (gene COG6, hepatocytes): −0.01
RNA-seq results: COL1A1 expression (gene COL1A1, hepatocytes): −0.34
RNA-seq results: COX6A1 expression (gene COX6A1, hepatocytes): −0.13
RNA-seq results: CP expression (gene CP, hepatocytes): 0.11
RNA-seq results: CPS1 expression (gene CPS1, hepatocytes): 0.09
RNA-seq results: CPT1A expression (gene CPT1A, hepatocytes): −0.18
RNA-seq results: CPT2 expression (gene CPT2, hepatocytes): 0.10
RNA-seq results: CROT expression (gene CROT, hepatocytes): −0.04
RNA-seq results: CSPP1 expression (gene CSPP1, hepatocytes): −0.07
RNA-seq results: CTC1 expression (gene CTC1, hepatocytes): −0.08
RNA-seq results: CTDSP2 expression (gene CTDSP2, hepatocytes): 0.10
RNA-seq results: CTH expression (gene CTH, hepatocytes): 0.23
RNA-seq results: CTNS expression (gene CTNS, hepatocytes): 0.08
RNA-seq results: CTSF expression (gene CTSF, hepatocytes): 0.10
RNA-seq results: CTSK expression (gene CTSK, hepatocytes): −0.15
RNA-seq results: CYB5A expression (gene CYB5A, hepatocytes): 0.73
RNA-seq results: CYB5R3 expression (gene CYB5R3, hepatocytes): 0.04
RNA-seq results: CYP27A1 expression (gene CYP27A1, hepatocytes): 0.04
RNA-seq results: DAO expression (gene DAO, hepatocytes): −0.04
RNA-seq results: DBT expression (gene DBT, hepatocytes): 0.04
RNA-seq results: DCDC2 expression (gene DCDC2, hepatocytes): 0.01
RNA-seq results: DCXR expression (gene DCXR, hepatocytes): −0.01
RNA-seq results: FABP1 expression (gene FABP1, hepatocytes): −0.25
RNA-seq results: FADD expression (gene FADD, hepatocytes): −0.08
RNA-seq results: FAM111A expression (gene FAM111A, hepatocytes): 0.07
RNA-seq results: FAM111B expression (gene FAM111B, hepatocytes): 0.03
RNA-seq results: FAN1 expression (gene FAN1, hepatocytes): 0.05
RNA-seq results: FARS2 expression (gene FARS2, hepatocytes): −0.14
RNA-seq results: FASLG expression (gene FASLG, hepatocytes): −0.21
RNA-seq results: FGA expression (gene FGA, hepatocytes): 0.16
RNA-seq results: FGD1 expression (gene FGD1, hepatocytes): −0.07
RNA-seq results: FGFR2 expression (gene FGFR2, hepatocytes): 0.07
RNA-seq results: FIG4 expression (gene FIG4, hepatocytes): −0.12
RNA-seq results: FIS1 expression (gene FIS1, hepatocytes): −0.06
RNA-seq results: FTCD expression (gene FTCD, hepatocytes): 0.31
RNA-seq results: FTH1 expression (gene FTH1, hepatocytes): 0.06
RNA-seq results: FUCA1 expression (gene FUCA1, hepatocytes): −0.11
RNA-seq results: FXN expression (gene FXN, hepatocytes): 0.23
RNA-seq results: G6PC3 expression (gene G6PC3, hepatocytes): 0.02
RNA-seq results: G6PC expression (gene G6PC, hepatocytes): 0.12
RNA-seq results: G6PD expression (gene G6PD, hepatocytes): 0.13
RNA-seq results: GALK1 expression (gene GALK1, hepatocytes): −0.03
RNA-seq results: GALK2 expression (gene GALK2, hepatocytes): 0.00
RNA-seq results: GALT expression (gene GALT, hepatocytes): 0.01
RNA-seq results: GATA6 expression (gene GATA6, hepatocytes): −0.07
RNA-seq results: GATM expression (gene GATM, hepatocytes): −0.15
RNA-seq results: GBA expression (gene GBA, hepatocytes): 0.02
RNA-seq results: GBE1 expression (gene GBE1, hepatocytes): −0.15
RNA-seq results: GCH1 expression (gene GCH1, hepatocytes): −0.06
RNA-seq results: GCKR expression (gene GCKR, hepatocytes): 0.23
RNA-seq results: GCLC expression (gene GCLC, hepatocytes): −0.04
RNA-seq results: GOSH expression (gene GOSH, hepatocytes): 0.46
RNA-seq results: RRM2B (gene RRM2B, hepatocytes): −0.28
RNA-seq results: RSAD1 (gene RSAD1, hepatocytes): −0.02
RNA-seq results: SAMHD1 (gene SAMHD1, hepatocytes): −0.24
RNA-seq results: SC5D (gene SC5D, hepatocytes): −0.29
RNA-seq results: SCARB1 (gene SCARB1, hepatocytes): −0.03
RNA-seq results: SCN9A (gene SCN9A, hepatocytes): 0.10
RNA-seq results: SDCCAG8 (gene SDCCAG8, hepatocytes): −0.06
RNA-seq results: SEPN1 (gene SEPN1, hepatocytes): −0.11
RNA-seq results: SERAC1 (gene SERAC1, hepatocytes): −0.22
RNA-seq results: SERPINA1 (gene SERPINA1, hepatocytes): −0.17
RNA-seq results: SERPING1 (gene SERPING1, hepatocytes): −0.16
RNA-seq results: SERPINI1 (gene SERPINI1, hepatocytes): −0.41
RNA-seq results: SETBP1 (gene SETBP1, hepatocytes): 0.06
RNA-seq results: SFXN4 (gene SFXN4, hepatocytes): −0.19
RNA-seq results: SLC10A1 (gene SLC10A1, hepatocytes): −0.31
RNA-seq results: SLC10A3 (gene SLC10A3, hepatocytes): 0.33
RNA-seq results: SLC10A5 (gene SLC10A5, hepatocytes): 0.19
RNA-seq results: SLC10A7 (gene SLC10A7, hepatocytes): −0.38
RNA-seq results: SLC11A2 (gene SLC11A2, hepatocytes): −0.02
RNA-seq results: SLC19A1 (gene SLC19A1, hepatocytes): 0.05
RNA-seq results: SLC19A2 (gene SLC19A2, hepatocytes): 0.00
RNA-seq results: SLC19A3 (gene SLC19A3, hepatocytes): −0.03
RNA-seq results: SLC22A1 (gene SLC22A1, hepatocytes): −0.32
RNA-seq results: SLC22A5 (gene SLC22A5, hepatocytes): 0.05
RNA-seq results: SLC25A1 (gene SLC25A1, hepatocytes): 0.08
RNA-seq results: SLC25A10 (gene SLC25A10, hepatocytes): −0.16
RNA-seq results: SLC25A12 (gene SLC25A12, hepatocytes): 0.23
RNA-seq results: SLC25A13 (gene SLC25A13, hepatocytes): −0.13
RNA-seq results: SLC25A15 (gene SLC25A15, hepatocytes): 0.02
RNA-seq results: SLC25A19 (gene SLC25A19, hepatocytes): −0.15
RNA-seq results: SLC25A20 (gene SLC25A20, hepatocytes): −0.16
RNA-seq results: SLC25A29 (gene SLC25A29, hepatocytes): 0.09
RNA-seq results: SLC25A32 (gene SLC25A32, hepatocytes): −0.05

CC1(C)CC[C@]2(C(=O)O)CC[C@]3(C)[C@H](C(=O)C=C4[C@@]5(C)C=C(C#N)C(=O)C(C)(C)[C@@H]5CC[C@]43C)[C@@H]2C1 [Bardoxolone]
significant modulation of expression of any of the genes analyzed (RNA-seq, hepatocytes): not observed to significantly modulate expression

C[C@H](Oc1ccc(S(C)(=O)=O)cc1C(=O)N1CCN(c2ncc(C(F)(F)F)cc2F)CC1)C(F)(F)F [Bitopertin]
significant changes in gene expression (RNA-seq of Table 36, FPKM≥0.5, log 2(fold-change)≥1, q-value≤0.05): not observed to cause any significant changes in gene expression
significant modulation of expression of any of the genes analyzed (RNA-seq, hepatocytes): not observed to significantly modulate expression
